In US7553864B2, “Compounds for the treatment of inflammatory disorders and microbial diseases” (Schering Corporation, priority 2005, dated 2009):

Tested on: LpxC enzyme
Experiment: LpxC enzyme assay (RapidFire high-throughput mass spectrometry)
Format: biochemical
How it was run: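 0.2 nM enzyme with 1.0 μM UDP-3-O-(R-3-hydroxymyristoyl)-N-acetylglucosamine in 25 mM HEPES pH 7.3, 150 mM NaCl, 2.0 mM DTT, 0.01% BSA, 2% DMSO; 60 min at room temperature, quenched with HCl. Substrate and product quantified by RapidFire mass spectrometry; percent conversion gives percent inhibition versus DMSO control.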

[1] = concentration 0.10 (unit not given)
[2] = concentration 0.20 (unit not given)
[3] = concentration 0.39 (unit not given)
[4] = concentration 0.78 (unit not given)
[5] = concentration 1.56 (unit not given)
[6] = concentration 3.13 (unit not given)
[7] = concentration 6.25 (unit not given)
[8] = concentration 12.50 (unit not given)
[9] = concentration 25 (unit not given)
[10] = concentration 50 (unit not given)

Row | Structure (SMILES) | LpxC enzyme assay rating (% inhibition at indicated concentrations) [1] | LpxC enzyme assay rating (% inhibition at indicated concentrations) [2] | LpxC enzyme assay rating (% inhibition at indicated concentrations) [3] | LpxC enzyme assay rating (% inhibition at indicated concentrations) [4] | LpxC enzyme assay rating (% inhibition at indicated concentrations) [5] | LpxC enzyme assay rating (% inhibition at indicated concentrations) [6] | LpxC enzyme assay rating (% inhibition at indicated concentrations) [7] | LpxC enzyme assay rating (% inhibition at indicated concentrations) [8] | LpxC enzyme assay rating (% inhibition at indicated concentrations) [9] | LpxC enzyme assay rating (% inhibition at indicated concentrations) [10]
1 | CNC(=O)[C@H](O)[C@@H](O)C(=O)N1CCC(c2ccc(C(F)(F)F)cc2)CC1 [Compound 35] | C (less than 10% inhibition) | C (less than 10% inhibition) | C (less than 10% inhibition) | C (less than 10% inhibition) | B (10-30% inhibition) | C (less than 10% inhibition) | C (less than 10% inhibition) | C (less than 10% inhibition) | C (less than 10% inhibition) | B (10-30% inhibition)
2 | CN(C)C(=O)[C@H](O)[C@@H](O)C(=O)Nc1ccc(N2CCOCC2)cc1 [Compound 54] | C (less than 10% inhibition) | C (less than 10% inhibition) | C (less than 10% inhibition) | C (less than 10% inhibition) | C (less than 10% inhibition) | B (10-30% inhibition) | C (less than 10% inhibition) | C (less than 10% inhibition) | C (less than 10% inhibition) | C (less than 10% inhibition)
3 | CNC(=O)[C@H](O)[C@@H](O)C(=O)N1CCN(c2ccc(-c3ccccc3)cc2)CC1 [Compound 30] | C (less than 10% inhibition) | B (10-30% inhibition) | B (10-30% inhibition) | C (less than 10% inhibition) | C (less than 10% inhibition) | B (10-30% inhibition) | B (10-30% inhibition) | B (10-30% inhibition) | B (10-30% inhibition) | A (greater than 30% inhibition)
4 | O=C(Nc1ccc(Oc2ccccc2)cc1)[C@H](O)[C@@H](O)C(=O)N1CCCC1 [Compound 71] | B (10-30% inhibition) | C (less than 10% inhibition) | B (10-30% inhibition) | B (10-30% inhibition) | B (10-30% inhibition) | B (10-30% inhibition) | C (less than 10% inhibition) | C (less than 10% inhibition) | C (less than 10% inhibition) | C (less than 10% inhibition)
5 | CN(C)C(=O)[C@H](O)[C@@H](O)C(=O)Nc1ccc(Oc2ccccc2)cc1 [Compound 53] | C (less than 10% inhibition) | C (less than 10% inhibition) | C (less than 10% inhibition) | B (10-30% inhibition) | C (less than 10% inhibition) | C (less than 10% inhibition) | C (less than 10% inhibition) | C (less than 10% inhibition) | C (less than 10% inhibition) | C (less than 10% inhibition)
6 | CN(C)C(=O)[C@H](O)[C@@H](O)C(=O)N1CCC(c2ccc3ccccc3c2)CC1 [Compound 52] | C (less than 10% inhibition) | C (less than 10% inhibition) | C (less than 10% inhibition) | C (less than 10% inhibition) | C (less than 10% inhibition) | C (less than 10% inhibition) | B (10-30% inhibition) | B (10-30% inhibition) | B (10-30% inhibition) | A (greater than 30% inhibition)
7 | CN(C)C(=O)[C@H](O)[C@@H](O)C(=O)Nc1cccc(C#Cc2ccccc2)c1 [Compound 81] | C (less than 10% inhibition) | C (less than 10% inhibition) | C (less than 10% inhibition) | C (less than 10% inhibition) | C (less than 10% inhibition) | C (less than 10% inhibition) | C (less than 10% inhibition) | C (less than 10% inhibition) | C (less than 10% inhibition) | –
8 | CN(C)CCCOc1ccc(NC(=O)[C@H](O)[C@@H](O)C(=O)N2CCCC2)cc1 [Compound 74] | B (10-30% inhibition) | C (less than 10% inhibition) | C (less than 10% inhibition) | C (less than 10% inhibition) | B (10-30% inhibition) | B (10-30% inhibition) | C (less than 10% inhibition) | C (less than 10% inhibition) | C (less than 10% inhibition) | C (less than 10% inhibition)
9 | O=C(NCCCCl)[C@H](O)[C@@H](O)C(=O)Nc1ccc(-n2cccn2)cc1 [Compound 62] | C (less than 10% inhibition) | C (less than 10% inhibition) | C (less than 10% inhibition) | C (less than 10% inhibition) | B (10-30% inhibition) | C (less than 10% inhibition) | B (10-30% inhibition) | B (10-30% inhibition) | B (10-30% inhibition) | C (less than 10% inhibition)
10 | CCCCc1ccc(NC(=O)[C@H](O)[C@@H](O)C(=O)NC)cc1 [Compound 32] | B (10-30% inhibition) | B (10-30% inhibition) | B (10-30% inhibition) | B (10-30% inhibition) | C (less than 10% inhibition) | B (10-30% inhibition) | C (less than 10% inhibition) | B (10-30% inhibition) | B (10-30% inhibition) | B (10-30% inhibition)
